Assay results published in patent US7498162B2, “Lactic acid bacteria capable of reducing an individual's tendency to develop allergic reactions” (Nestec S.A., priority 2000, dated 2009).

How the values were obtained:
Type in all cases: in vivo, Balb/c mice
[1] = system: MLN lymphocytes; test: Mesenteric lymph node lymphocyte proliferation (stimulation index); conditions: synthetic peptide given orally
[2] = system: Spleen lymphocyte; test: Splenocyte specific proliferation assay ([3H]-Thy, stimulation index); conditions: synthetic peptide given orally; for Spleen lymphocyte SI (test/control): SI: Stimulation Index; for T cell proliferation / T cell response: result in words
Description: (§1) For assessing the tolerogenic properties of the various peptides female Balb/c mice were used, obtained from IFFA-Crédo (L'Abresle France). The animals were all bred and raised on a milk free diet. At the beginning of the experiments the animals were 3 weeks old. They received by gavage native β-lactoglobulin (5 mg/g of body weight), various amounts of digested β-lactoglobulin and various amounts of the different peptides obtained under a) above. Control mice were fed saline water. After 5 days on such a diet all mice were immunized with β-lactoglobulin and ovalbumin (grade V, Sigma) as a non related antigen in order to assess the specificity of the immune response. A delayed type hypersensitivity evaluation (DTH) was performed 21 days after the systemic challenge by comparing the thickness of the left rear footpad, prior to and after the immunization. 24 hours after the immunization the foot pad thickness of the animals were measured (expressed in Δ thickness (mm)). Subsequently, blood was taken from all mice, followed by talking the spleens, that were pooled according to group treatment. Splenocyte specific proliferation assays were performed for each group. The intestinal contents were individually collected. Serum and intestinal samples were individually frozen at −80° C. until performance of the respective assays. Anti-β-lactoglobulin IgE and anti-ovalbumin IgE levels were determined both in serum and intestinal samples.
Spleen cell solutions were homogenized in PBS and purified. The cells were co-cultured in the presence of β-lactoglobulin or phytohemagglutinin A. Tritiated thymidine ([^3H]-Thy (Amersham, Zürich) was added during the last 6 hours of culture and the plates were harvested and analyzed by scintillation counting. Stimulation indices were calculated as the ratio of blank-substracted test and control levels expressed as the mean cpm of [^3H]-Thy incorporated by triplicate cultures.
(§2) The synthetic peptides were analysed for their tolerogenic capacity in the […] mouse model.

[3] = system: anti-β-lactoglobulin IgE; test: Oral tolerance mouse model: anti-β-lactoglobulin IgE ELISA titer; conditions: synthetic peptide given orally; for IgE titer (log) (test/control): test value of the test/control pair (control 3.39), mice then immunized with β-lactoglobulin
Description: as §1
The serum and intestinal fluids were diluted and assayed in duplicate for anti-β-lactoglobulin and anti-ovalbumin IgE antibodies using ELISA. Pooled samples of 20 non immunized mice were used as negative controls. The titers were determined by calculating the dilution of the sample, that gave twice the absorbance of the negative control. The titers were expressed as the log10 of the reciprocal of he dilution
as §2

Substance	MLN lymphocytes SI (test/control) [1]	Spleen lymphocyte SI (test/control) [2]	T cell proliferation / T cell response [2]	IgE production ([3]; result in words)	IgE titer (log) (test/control) [3]	oral tolerance to BLG ([3]; result in words)
T-17: synthetic β-lactoglobulin peptide (residues 92-100 with flanking residues and extra Cys), SEQ ID 23: C N K V L V L D T D Y K K Y S (CNKVLVLDTDYKKYS)	0.41	0.31	reduced	reduced	2.67/3.39 log	
T-6: synthetic β-lactoglobulin peptide (residues 84-91 with flanking residues and extra Cys), SEQ ID 22: C F K I D A L N E N K V S R (CFKIDALNENKVSR)	0.29	0.53	suppressed		3.24/3.39 log	
T-13: control peptide, N-terminus of β-lactoglobulin (residues 1-8), SEQ ID 25: L I V T Q T M K S R C (LIVTQTMKSRC) [reference compound]	0.87	1.70			3.20/3.39 log	did not induce
T-6/T-17: synthetic β-lactoglobulin peptide (residues 84-100), SEQ ID 24: CFKIDALNENKVLVLDTDYKKYS (CFKIDALNENKVLVLDTDYKKYS)	0.81	0.92			3.40/3.39 log	
